Laboratory results: ChEMBL document CHEMBL1201862, “PubChem BioAssay data set” (2004)
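How tested: cells in 96-well plates exposed to compound for 48 hours at five concentrations. GI50: concentration for 50% inhibition of growth.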 Calls of active or inactive are those of the source. No stated cut-off is given here; in the data, active = GI50 up to about 1.1 µM and inactive = higher.

Key:
Assay in all cases: inhibition of tumour cell growth, NCI panel, 48 h
A549 = tested on: A549
KM-20L2 = tested on: KM-20L2
SW-620 = tested on: SW-620
NCI-H522 = tested on: NCI-H522
786-0 = tested on: 786-0
HOP-62 = tested on: HOP-62
SF-539 = tested on: SF-539
HOP-92 = tested on: HOP-92
CCRF-CEM = tested on: CCRF-CEM
OVCAR-8 = tested on: OVCAR-8
HOP-18 = tested on: HOP-18
NCI-H460 = tested on: NCI-H460
KM12 = tested on: KM12
MOLT-4 = tested on: MOLT-4
ACHN = tested on: ACHN
M19-MEL = tested on: M19-MEL
K562 = tested on: K562
LOX IMVI = tested on: LOX IMVI
HT-29 = tested on: HT-29
XF498 = tested on: XF498
HL-60 = tested on: HL-60
SNB-78 = tested on: SNB-78
SR = tested on: SR
COLO 205 = tested on: COLO 205
DMS-273 = tested on: DMS-273
SK-MEL-28 = tested on: SK-MEL-28
OVCAR-4 = tested on: OVCAR-4
UACC-257 = tested on: UACC-257
A498 = tested on: A498
IGROV-1 = tested on: IGROV-1
EKVX = tested on: EKVX
SN12C = tested on: SN12C
Malme-3M = tested on: Malme-3M
CAKI-1 = tested on: CAKI-1
SF-295 = tested on: SF-295
LXFL 529 = tested on: LXFL 529
NCI-H23 = tested on: NCI-H23
HCC 2998 = tested on: HCC 2998
SK-MEL-2 = tested on: SK-MEL-2
RXF 393 = tested on: RXF 393
OVCAR-5 = tested on: OVCAR-5
TK-10 = tested on: TK-10
SNB-19 = tested on: SNB-19
SF-268 = tested on: SF-268
U-251 = tested on: U-251
HCT-116 = tested on: HCT-116
NCI-H226 = tested on: NCI-H226
OVCAR-3 = tested on: OVCAR-3
HCT-15 = tested on: HCT-15
DMS-114 = tested on: DMS-114
UO-31 = tested on: UO-31
NCI/ADR-RES = tested on: NCI/ADR-RES
SNB-75 = tested on: SNB-75
MCF7 = tested on: MCF7
DLD-1 = tested on: DLD-1
SK-MEL-5 = tested on: SK-MEL-5
UACC-62 = tested on: UACC-62
SK-OV-3 = tested on: SK-OV-3
RPMI-8226 = tested on: RPMI-8226
M14 = tested on: M14

Structure (SMILES): BrC1(Br)C2/C=C\CCCCC21 (centres undefined)
- GI50 (A549): > 100 µM (inactive)
- GI50 (KM-20L2): > 100 µM (inactive)
- GI50 (SW-620): > 100 µM (inactive)
- GI50 (NCI-H522): > 100 µM (inactive)
- GI50 (786-0): > 100 µM (inactive)
- GI50 (HOP-62): > 100 µM (inactive)
- GI50 (SF-539): > 100 µM (inactive)
- GI50 (HOP-92): 42.3 µM (inactive)
- GI50 (CCRF-CEM): > 100 µM (inactive)
- GI50 (OVCAR-8): > 100 µM (inactive)
- GI50 (HOP-18): > 100 µM (inactive)
- GI50 (NCI-H460): > 100 µM (inactive)
- GI50 (KM12): > 100 µM (inactive)
- GI50 (MOLT-4): > 100 µM (inactive)
- GI50 (ACHN): > 100 µM (inactive)
- GI50 (M19-MEL): > 100 µM (inactive)
- GI50 (K562): > 100 µM (inactive)
- GI50 (LOX IMVI): > 100 µM (inactive)
- GI50 (HT-29): > 100 µM (inactive)
- GI50 (XF498): > 100 µM (inactive)
- GI50 (HL-60): > 100 µM (inactive)
- GI50 (SNB-78): > 100 µM (inactive)
- GI50 (SR): > 100 µM (inactive)
- GI50 (COLO 205): > 100 µM (inactive)
- GI50 (DMS-273): > 100 µM (inactive)
- GI50 (SK-MEL-28): > 100 µM (inactive)
- GI50 (OVCAR-4): > 100 µM (inactive)
- GI50 (UACC-257): > 100 µM (inactive)
- GI50 (A498): > 100 µM (inactive)
- GI50 (IGROV-1): > 100 µM (inactive)
- GI50 (EKVX): > 100 µM (inactive)
- GI50 (SN12C): > 100 µM (inactive)
- GI50 (Malme-3M): > 100 µM (inactive)
- GI50 (CAKI-1): > 100 µM (inactive)
- GI50 (SF-295): > 100 µM (inactive)
- GI50 (LXFL 529): > 100 µM (inactive)
- GI50 (NCI-H23): > 100 µM (inactive)
- GI50 (HCC 2998): > 100 µM (inactive)
- GI50 (SK-MEL-2): > 100 µM (inactive)
- GI50 (RXF 393): > 100 µM (inactive)
- GI50 (OVCAR-5): > 100 µM (inactive)
- GI50 (TK-10): > 100 µM (inactive)
- GI50 (SNB-19): > 100 µM (inactive)
- GI50 (SF-268): > 100 µM (inactive)
- GI50 (U-251): > 100 µM (inactive)
- GI50 (HCT-116): > 100 µM (inactive)
- GI50 (NCI-H226): > 100 µM (inactive)

Structure (SMILES): COC(=O)c1nc(-c2ccc3c(n2)C(=O)C(=N)C(OC)=C3O)c(N)c(-c2ccc(OC)c(OC)c2O)c1C
- GI50 (A549): 0.189 µM (active)
- GI50 (KM-20L2): 2.24 µM (inactive)
- GI50 (SW-620): 1.33 µM (inactive)
- GI50 (NCI-H522): 1.06 µM (active)
- GI50 (OVCAR-3): 0.445 µM (active)
- GI50 (HOP-62): 0.194 µM (active)
- GI50 (SF-539): 0.363 µM (active)
- GI50 (HCT-15): 1.13 µM
- GI50 (HOP-92): 2.16 µM (inactive)
- GI50 (CCRF-CEM): 2.56 µM (inactive)
- GI50 (OVCAR-8): 1.08 µM (active)
- GI50 (HOP-18): 2.03 µM (inactive)
- GI50 (NCI-H460): < 0.01 µM (active)
- GI50 (KM12): 1.68 µM (inactive)
- GI50 (MOLT-4): 2.04 µM (inactive)
- GI50 (DMS-114): 0.415 µM (active)
- GI50 (UO-31): 0.729 µM (active)
- GI50 (M19-MEL): 0.254 µM (active)
- GI50 (K562): 1.93 µM (inactive)
- GI50 (NCI/ADR-RES): 1.3 µM (inactive)
- GI50 (SNB-75): 0.984 µM (active)
- GI50 (LOX IMVI): 0.29 µM (active)
- GI50 (HT-29): 1.73 µM (inactive)
- GI50 (XF498): 1.18 µM (inactive)
- GI50 (HL-60): 0.357 µM (active)
- GI50 (SNB-78): 2.35 µM (inactive)
- GI50 (COLO 205): 1.84 µM (inactive)
- GI50 (DMS-273): 0.303 µM (active)
- GI50 (SK-MEL-28): 1.33 µM (inactive)
- GI50 (OVCAR-4): 1.66 µM (inactive)
- GI50 (UACC-257): 0.419 µM (active)
- GI50 (A498): 1.61 µM (inactive)
- GI50 (MCF7): 0.153 µM (active)
- GI50 (DLD-1): 1.17 µM (inactive)
- GI50 (IGROV-1): 1.7 µM (inactive)
- GI50 (EKVX): 2.57 µM (inactive)
- GI50 (SN12C): 1.16 µM (inactive)
- GI50 (Malme-3M): 0.524 µM (active)
- GI50 (SK-MEL-5): 0.413 µM (active)
- GI50 (CAKI-1): 0.628 µM (active)
- GI50 (SF-295): 0.449 µM (active)
- GI50 (NCI-H23): 0.217 µM (active)
- GI50 (UACC-62): 0.29 µM (active)
- GI50 (HCC 2998): 0.128 µM (active)
- GI50 (SK-OV-3): 1.18 µM (inactive)
- GI50 (SK-MEL-2): 1.47 µM (inactive)
- GI50 (RXF 393): 1.58 µM (inactive)
- GI50 (OVCAR-5): 2.14 µM (inactive)
- GI50 (RPMI-8226): 1.21 µM (inactive)
- GI50 (SNB-19): 0.628 µM (active)
- GI50 (SF-268): 0.769 µM (active)
- GI50 (U-251): 0.377 µM (active)
- GI50 (HCT-116): 0.738 µM (active)
- GI50 (NCI-H226): 0.324 µM (active)

Structure (SMILES): CC1=NN(C(=O)Cc2ccccc2)C(=O)/C1=C\c1ccco1
- GI50 (A549): > 100 µM (inactive)
- GI50 (SW-620): > 100 µM (inactive)
- GI50 (NCI-H522): > 100 µM (inactive)
- GI50 (786-0): > 100 µM (inactive)
- GI50 (OVCAR-3): > 100 µM (inactive)
- GI50 (HOP-62): > 100 µM (inactive)
- GI50 (SF-539): > 100 µM (inactive)
- GI50 (HCT-15): > 100 µM
- GI50 (CCRF-CEM): > 100 µM (inactive)
- GI50 (OVCAR-8): > 100 µM (inactive)
- GI50 (HOP-18): > 100 µM (inactive)
- GI50 (KM12): > 100 µM (inactive)
- GI50 (MOLT-4): > 100 µM (inactive)
- GI50 (DMS-114): > 100 µM (inactive)
- GI50 (ACHN): > 100 µM (inactive)
- GI50 (UO-31): > 100 µM (inactive)
- GI50 (M19-MEL): > 100 µM (inactive)
- GI50 (K562): > 100 µM (inactive)
- GI50 (SNB-75): > 100 µM (inactive)
- GI50 (LOX IMVI): > 100 µM (inactive)
- GI50 (HT-29): > 100 µM (inactive)
- GI50 (XF498): > 100 µM (inactive)
- GI50 (HL-60): > 100 µM (inactive)
- GI50 (SNB-78): > 100 µM (inactive)
- GI50 (SR): > 100 µM (inactive)
- GI50 (COLO 205): > 100 µM (inactive)
- GI50 (DMS-273): > 100 µM (inactive)
- GI50 (SK-MEL-28): > 100 µM (inactive)
- GI50 (OVCAR-4): > 100 µM (inactive)
- GI50 (UACC-257): > 100 µM (inactive)
- GI50 (DLD-1): > 100 µM (inactive)
- GI50 (EKVX): > 100 µM (inactive)
- GI50 (M14): > 100 µM (inactive)
- GI50 (SN12C): > 100 µM (inactive)
- GI50 (Malme-3M): > 100 µM (inactive)
- GI50 (SK-MEL-5): > 100 µM (inactive)
- GI50 (CAKI-1): > 100 µM (inactive)
- GI50 (SF-295): > 100 µM (inactive)
- GI50 (NCI-H23): > 100 µM (inactive)
- GI50 (HCC 2998): > 100 µM (inactive)
- GI50 (SK-MEL-2): > 100 µM (inactive)
- GI50 (OVCAR-5): > 100 µM (inactive)
- GI50 (TK-10): > 100 µM (inactive)
- GI50 (RPMI-8226): > 100 µM (inactive)
- GI50 (SNB-19): > 100 µM (inactive)
- GI50 (SF-268): > 100 µM (inactive)
- GI50 (HCT-116): > 100 µM (inactive)
- GI50 (NCI-H226): > 100 µM (inactive)
